According to patent US10407382B2, “EP4 agonists as therapeutic compounds” (ALLERGAN, INC., priority 2014, dated 2019):

Experiments:
EP2 [1] = molecular target: T1, EP2 (Homo sapiens, UniProt P43116); assay: Ki competition binding, EP2; set-up: expressed in transfected cells; settings: [3H]PGE2 competition; NA = no activity
Experimental: (§1) Data from running binding and activity studies on the compounds of the invention were carried out as described in U.S. Pat. No. 7,427,685, the contents of which are incorporated herein by reference.
Competition binding experiments were performed in a medium containing Hank's balanced salt solution, Hepes 20 mM, pH 7.3, membranes (˜60 μg protein) or 2×10^5 cells from HEK 293 cells stably expressing human EP2 receptors, [^3H]PGE2 (10 nM) and various concentrations of test compounds in a total volume of 300 μl. Reaction mixtures were incubated at 23° C. for 60 min, and were filtered over Whatman GF IB filters under vacuum. Filters were washed three times with 5 ml ice-cold buffer containing 50 mM Tris/HCl (PH 7.3). Non-specific binding was estimated in the presence of excess unlabeled PGE2 (10 μM). Binding data fitted to the binding model for a single class of binding sites, using nonlinear regression analysis. IC50 values thus obtained were converted to Ki using the equation of Ki=(IC50/(1+[L]/KD) where [L] represents PGE2 concentration (10 nM) and KD the dissociation constant for [^3H]PGE2 at human EP2 receptors (40 nM).
(§2) Cells Stably Expressing EP1, EP2, EP4, and FP Receptors
(§3) HEK-293 cells stably expressing the human or feline FP receptor, or EP1, EP2, or EP4 receptors were washed with TME buffer, scraped from the bottom of the flasks, and homogenized for 30 sec using a Brinkman PT 10/35 polytron. TME buffer was added to achieve a final 40 ml volume in the centrifuge tubes (the composition of TME is 100 mM TRIS base, 20 mM MgCl2, […]; ION HCl is added to achieve a pH of 7.4).
(§4) The cell homogenate was centrifuged at 19000 rpm for 20 min at 4° C. using a Beckman Ti-60 rotor. The resultant pellet was resuspended in TME buffer to give a final 1 mg/ml protein concentration, as determined by Biorad assay. Radioligand binding competition assays vs. [^3H-]17-phenyl PGF2α (5 nM) were performed in a 100 μl volume for 60 min. Binding reactions were started by adding plasma membrane fraction. The reaction was terminated by the addition of 4 ml ice-cold TRIS-HCl buffer and rapid filtration through glass fiber GF/B filters using a Brandel cell harvester. The filters were washed 3 times with ice-cold buffer and oven dried for one hour.
(§5) [^3H-] PGE2 (specific activity 180 Ci mmol) was used as the radio ligand for EP receptors. [^3H] 17-phenyl PGF2α was employed for FP receptor binding studies. Binding studies employing EP1, EP2, EP4 and FP receptors were performed in duplicate in at least three separate experiments. A 200 μl assay volume was used. Incubations were for 60 min at 25° C. and were terminated by the addition of 4 ml of ice-cold 50 mM TRIS-HCl, followed by rapid filtration through Whatman GF/B filters and three additional 4 ml washes in a cell harvester (Brandel). Competition studies were performed using a final concentration of 5 nM [^3H]-PGE2, or 5 nM [^3H] 17-phenyl PGF2α and non-specific binding determined with 10^−5M of unlabeled PGE2, or 17-phenyl PGF2α, according to receptor subtype studied.

EP4 [2] = molecular target: T2, EP4 (Homo sapiens, UniProt P35408); assay: Radioligand binding, EP4; set-up: expressed in transfected cells; membrane fraction; settings: [3H]PGE2 competition
Experimental: as §1, §2, §3, §4, §5

EP4 [3] = molecular target: T2, EP4; assay: cAMP assay, EP4; type: cell-based; set-up: expressed in transfected cells; host or cells: HEK-EBNA cells; settings: HEK-EBNA cells expressing EP4
Experimental: (§6) A 384-well drug plate was prepared to contain 6 test compounds, PGE2 and cAMP in 16 serial dilutions in triplicate, using a Biomek station. HEK-EBNA cells expressing a target PG receptor subtype (EP2 or EP4) were suspended in a stimulation buffer (HBSS, 0.1% BSA, 0.5 mM IBMX and 5 mM HEPES, pH 7.4) in a density of 10^4 cells/5 μL. The reaction was initiated by mixing 5 μL drug dilutions with 5 μL of HEK-EBNA cells in a well, carried out for 30 min at room temperature, and followed by the addition of 5 μL anti-cAMP acceptor beads in the control buffer with Tween-20 (25 mM NaCl, 0.03% Tween-20, 5 mM HEPES, pH 7.4). After 30 min in the dark at room temperature, the mixtures were incubated with 15 μL biotinylated-cAMP/strepavidin donor beads in Lysis/Detection buffer (0.1% BSA, 0.3% Tween-20 and 5 mM HEPES, pH 7.4) for 45 min at the room temperature. Fluorescence changes were read using a Fusion-alpha HT microplate reader.

EP2 [4] = molecular target: T1, EP2; assay: cAMP assay, EP2; type: cell-based; set-up: expressed in transfected cells; host or cells: HEK-EBNA cells; settings: HEK-EBNA cells expressing EP2
Experimental: as §6

hIP = molecular target: T3, hIP (Homo sapiens, UniProt P43119); assay: FLIPR calcium signal, hIP; type: cell-based; settings: HEK-293(EBNA) cells; NA = no activity; read-out: Other Receptors EC50 hIP
T3 construct: expressed in transfected cells
Experimental: Methods for FLIPR™ Studies
HEK-293(EBNA) cells, stably expressing one type or subtype of recombinant human prostaglandin receptors (prostaglandin receptors expressed: hDP/Gqs5; hEP1; hEP2/Gqs5; hEP3A/Gqi5; hEP4/Gqs5; hFP; hIP; hTP), were cultured in 100 mm culture dishes in high-glucose DMEM medium containing 10% fetal bovine serum, 2 mM I-glutamine, 250 μg/ml geneticin (G418) and 200 μg/ml hygromycin B as selection markers, and 100 units/ml penicillin G, 100 μg/ml streptomycin and 0.25 μg/ml amphotericin B.
(b) Calcium Signal Studies on the FLIPR™
Cells were seeded at a density of 5×10^4 cells per well in Biocoat® Poly-D-lysine-coated black-wall, clear-bottom 96-well plates (Becton-Dickinson) and allowed to attach overnight in an incubator at 37° C. Cells were then washed two times with HBSS-HEPES buffer (Hanks Balanced Salt Solution without bicarbonate and phenol red, 20 mM HEPES, pH 7.4) using a Denley Cellwash plate washer (Labsystems). […]
Cells were excited with an Argon laser at 488 nm, and emission was measured through a 510-570 nm bandwidth emission filter (FLIPR™, Molecular Devices, Sunnyvale, Calif.). […] The peak increase in fluorescence intensity was recorded for each well. […] The peak fluorescence change in each drug-containing well was then expressed relative to the controls. […]

T1 sequence (P43116 whole entry): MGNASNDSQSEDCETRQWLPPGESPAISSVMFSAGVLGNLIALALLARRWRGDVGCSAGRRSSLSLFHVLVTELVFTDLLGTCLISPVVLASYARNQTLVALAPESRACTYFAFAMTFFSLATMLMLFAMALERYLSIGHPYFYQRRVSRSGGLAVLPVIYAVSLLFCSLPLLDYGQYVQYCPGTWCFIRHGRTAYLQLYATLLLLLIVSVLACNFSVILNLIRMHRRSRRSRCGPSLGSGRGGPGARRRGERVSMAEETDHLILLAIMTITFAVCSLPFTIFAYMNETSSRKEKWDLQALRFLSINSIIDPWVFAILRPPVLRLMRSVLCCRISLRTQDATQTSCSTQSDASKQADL
T2 sequence (P35408 whole entry): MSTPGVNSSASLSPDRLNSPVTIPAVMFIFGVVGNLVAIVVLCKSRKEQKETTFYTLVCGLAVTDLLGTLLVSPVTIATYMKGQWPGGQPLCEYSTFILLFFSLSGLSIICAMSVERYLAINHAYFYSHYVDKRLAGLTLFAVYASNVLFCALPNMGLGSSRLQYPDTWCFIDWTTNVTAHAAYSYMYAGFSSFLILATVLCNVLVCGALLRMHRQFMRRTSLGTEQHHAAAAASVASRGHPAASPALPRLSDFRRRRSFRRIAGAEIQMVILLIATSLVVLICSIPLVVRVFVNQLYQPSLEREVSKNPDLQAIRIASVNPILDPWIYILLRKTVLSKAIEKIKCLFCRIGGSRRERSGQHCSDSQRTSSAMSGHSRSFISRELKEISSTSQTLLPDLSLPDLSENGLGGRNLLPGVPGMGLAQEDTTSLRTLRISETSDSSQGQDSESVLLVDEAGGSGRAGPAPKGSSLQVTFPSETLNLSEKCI
T3 sequence (P43119 whole entry): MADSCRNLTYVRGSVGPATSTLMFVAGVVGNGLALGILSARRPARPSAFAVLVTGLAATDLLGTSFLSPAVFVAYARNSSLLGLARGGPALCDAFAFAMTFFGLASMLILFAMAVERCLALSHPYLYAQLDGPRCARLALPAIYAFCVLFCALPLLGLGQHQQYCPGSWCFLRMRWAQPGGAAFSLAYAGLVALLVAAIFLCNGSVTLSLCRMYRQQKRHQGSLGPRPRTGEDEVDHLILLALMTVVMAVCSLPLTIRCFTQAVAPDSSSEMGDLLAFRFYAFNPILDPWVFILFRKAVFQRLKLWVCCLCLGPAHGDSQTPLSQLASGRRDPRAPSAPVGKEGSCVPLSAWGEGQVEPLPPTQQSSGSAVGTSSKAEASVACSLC

| Structure (SMILES) | Ki (EP2 [1]) [nM] | Ki (EP4 [2]) [nM] | EC50 (EP4 [3]) [nM] | EC50 (EP2 [4]) [nM] | EC50 (hIP) [nM] |
| --- | --- | --- | --- | --- | --- |
| COc1cc(CC2CCCCCC2C(=O)NCc2ccc(C(=O)O)cc2)cc(OC)c1 (single isomer, unassigned) [Example 12, 4-((2-(3,5-Dimethoxybenzyl)cycloheptanecarboxamido)methyl)benzoic Acid] | > 10000 | 9 | > 10000 | 1310 |  |
| COc1cc(CC2=C(C(=O)NCc3ccc(C(=O)O)cc3)CCCCC2)cc(OC)c1 [Example 11, 4-((2-(3,5-Dimethoxybenzyl)cyclohept-1-enecarboxamido)methyl)benzoic Acid] | 2780 | 1 | > 10000 | 48 | > 10000 |
| O=C(NCc1ccc(C(=O)O)cc1)C1=C(Cc2cccc(C(F)(F)F)c2)CCC1 [Example 4, 4-((2-(3-(Trifluoromethyl)benzyl)cyclopent-1-enecarboxamido)methyl)benzoic Acid] | 109 | 7 | > 10000 | 2 |  |
| O=C(O)c1ccc(CNC(=O)C2CCCC2Cc2cccc(C(F)(F)F)c2)cc1 (single isomer, unassigned) [Example 5, 4-((2-(3-(Trifluoromethyl)benzyl)cyclopentanecarboxamido)methyl)benzoic Acid] | 154 | 8 | > 10000 | 13 |  |
| COc1cc(CC2CCCCC2C(=O)NCc2ccc(C(=O)O)cc2)cc(OC)c1 (single isomer, unassigned) [Example 9, 4-((2-(3,5-Dimethoxybenzyl)cyclohexanecarboxamido)methyl)benzoic Acid] | 2150 | 2 | > 10000 | 389 |  |
| COc1cc(CC2=C(C(=O)NCc3ccc(C(=O)O)cc3)CCCC2)cc(OC)c1 [Example 8, 4-((2-(3,5-Dimethoxybenzyl)cyclohex-1-enecarboxamido)methyl)benzoic Acid] | 177 | 1 | 0.2 | 2 |  |
| COc1ccc(OC)c(CC2=C(C(=O)NCc3ccc(C(=O)O)cc3)CCCC2)c1 [Example 17, 4-((2-(2,5-Dimethoxybenzyl)cyclohex-1-enecarboxamido)methyl)benzoic Acid] | 403 | 8 | > 10000 |  |  |
| COc1cc(CC2CCCCC2C(=O)NCc2ccc(C(=O)O)cc2)cc(OC)c1 (single isomer, unassigned) [Example 10, 4-((2-(3,5-Dimethoxybenzyl)cyclohexanecarboxamido)methyl)benzoic Acid] | 908 | 2 | 0.2 | 25 |  |
| COc1cc(CC2=C(C(=O)NCc3ccc(C(=O)O)cc3)CCC2)cc(OC)c1 [Example 3, 4-((2-(3,5-Dimethoxybenzyl)cyclopent-1-enecarboxamido)methyl)benzoic Acid] | 1120 | 5 | 1 | 33 |  |
| COc1cc(CC2CCCCCC2C(=O)NCc2ccc(C(=O)O)cc2)cc(OC)c1 (single isomer, unassigned) [Example 13, 4-((2-(3,5-Dimethoxybenzyl)cycloheptanecarboxamido)methyl)benzoic Acid] | 6300 | 2 | 0.2 | 573 |  |

Continued by falling Ki (EP2 [1]), values first:

| Ki (EP2 [1]) [nM] | Ki (EP4 [2]) [nM] | EC50 (EP4 [3]) [nM] | EC50 (EP2 [4]) [nM] | EC50 (hIP) [nM] | Structure (SMILES) |
| --- | --- | --- | --- | --- | --- |
| 4120 | 114 | > 10000 |  |  | COc1cccc(CC2CCCCC2C(=O)NCc2ccc(C(=O)O)cc2)c1OC (single isomer, unassigned) [Example 16, 4-((2-(2,3-Dimethoxybenzyl)cyclohexanecarboxamido)methyl)benzoic Acid] |
| 2920 | 116 | 35 |  |  | O=C(O)c1ccc(CNC(=O)C2CCCCC2Cc2ccccc2)cc1 (single isomer, unassigned) [Example 26, 4-((2-Benzylcyclohexanecarboxamido)methyl)benzoic Acid] |
| 733 | 18 | > 10000 | 10 | > 10000 | O=C(O)c1ccc(CNC(=O)C2CCCC2Cc2cccc(C(F)(F)F)c2)cc1 (single isomer, unassigned) [Example 6, 4-((2-(3-(Trifluoromethyl)benzyl)cyclopentanecarboxamido)methyl)benzoic Acid] |
| 138 | 2 | > 10000 |  |  | COc1cccc(CC2=C(C(=O)NCc3ccc(C(=O)O)cc3)CCCC2)c1 [Example 27, 4-((2-(3-Methoxybenzyl)cyclohex-1-enecarboxamido)methyl)benzoic Acid] |
| 83 | 4 | > 10000 |  |  | O=C(NCc1ccc(C(=O)O)cc1)C1=C(Cc2ccccc2Cl)CCCC1 [Example 24, 4-((2-(2-Chlorobenzyl)cyclohex-1-enecarboxamido)methyl)benzoic Acid] |
